{"source": "patent US11571411B2", "about": "“Use of a bisamide derivative of malonic acid for treating allergic and other diseases in humans and animals” (PHARMENTERPRISES ALLERGY LLC, priority 2018, dated 2023)", "origin": "cited, not measured here", "key": {"H3 receptor": {"target": "T1, H3 receptor (Homo sapiens, UniProt Q9Y5N1)", "T1 construct": "host or cells: human volunteers (nasal mucosa, in vivo)", "T1 sequence (Q9Y5N1 whole entry)": "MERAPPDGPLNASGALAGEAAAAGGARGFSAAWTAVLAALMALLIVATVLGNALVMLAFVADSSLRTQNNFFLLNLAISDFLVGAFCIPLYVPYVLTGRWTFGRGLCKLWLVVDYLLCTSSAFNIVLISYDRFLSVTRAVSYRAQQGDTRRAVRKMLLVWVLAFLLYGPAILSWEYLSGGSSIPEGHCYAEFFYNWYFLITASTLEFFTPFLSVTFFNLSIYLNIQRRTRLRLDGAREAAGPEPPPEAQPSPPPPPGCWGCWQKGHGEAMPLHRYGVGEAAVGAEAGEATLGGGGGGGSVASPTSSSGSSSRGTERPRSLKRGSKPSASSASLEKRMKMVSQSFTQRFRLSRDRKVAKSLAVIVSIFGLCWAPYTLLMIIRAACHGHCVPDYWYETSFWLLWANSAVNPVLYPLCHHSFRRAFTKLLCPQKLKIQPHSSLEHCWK", "settings": "humans, topical administration; cited from earlier work"}, "[1]": {"settings": "in vivo; cited from earlier work"}}, "data": [{"compound": "S=C(NC1CCCCC1)N1CCC(c2cnc[nH]2)CC1", "note": "[Thioperamide]", "values": [{"measurement": "effect on nasal blockage induced by R-alpha-methylhistamine", "setting": "H3 receptor", "value": "reduced"}, {"measurement": "crossing of the blood-brain barrier", "setting": "[1]", "value": "cross the blood-brain barrier"}]}]}
